Experimental findings from US7595395B2, “Gabaergic agents to treat memory deficits” (priority 2005, dated 2009) are described below.

For data set [1], the target named is α4β3γ2 benzodiazepine receptor GABA(A) isoform (UniProt P18507+P48169). Description: Radioligand competition binding, α4β3γ2 BzR/GABA(A) isoform. On the set-up: species or system human and rat. The protocol: (§1) The affinity of all ligands at the 6 major recombinant GABAA/BzR subtypes was measured by competition for [^3H]Ro15-1788 binding to HEK-T cells expressing both human and rat GABAA/Bz receptors of composition α1β2γ2 (α1), α2β2γ2 (α2), α3β2γ2 (α3), α4β2γ2 (α4), α5β2γ2 (α5) and α6β2γ2 (α6). It is well known that the β2 and β3 subunits can be interchanged with no effect on Bz ligand affinity or efficacy. […] These studies are similar to those performed in the laboratory of Bryan Roth who has already expressed the receptors employing the work of Kucken et. al. and Gray et. al.
In brief, for membrane preparations, the cells were scraped on to the ice and diluted into 5 mL of phosphate buffered saline (pH=7.40) and cells pelleted by centrifugation for 5 min. at 4° C. The pellet was resuspended in 1 mL of 50 mM Tris-acetate buffer (pH 7.4) and centrifuged at 18,000 g for 20 min. […] Each pellet were diluted to 6 mL and then 100 μL of membranes were incubated with approximately 1 nM final concentration of [^3H]Ro 15-1788 in a total volume of 250 μL together with serial dilutions of test compound for 90 min. on ice. The membranes were harvested in polyethyleneimine-pretreated Whatman GF/C filters and after drying and addition of scintillation cocktail, counted in a scintillation counter. […]
Background: Displacement assays read how much labelled ligand stays bound in the presence of the test substance.

Data set [2] has as its target T1, α3β3γ2 benzodiazepine receptor GABA(A) isoform (UniProt P18507+P34903).
T1 sequence (P18507 1-475): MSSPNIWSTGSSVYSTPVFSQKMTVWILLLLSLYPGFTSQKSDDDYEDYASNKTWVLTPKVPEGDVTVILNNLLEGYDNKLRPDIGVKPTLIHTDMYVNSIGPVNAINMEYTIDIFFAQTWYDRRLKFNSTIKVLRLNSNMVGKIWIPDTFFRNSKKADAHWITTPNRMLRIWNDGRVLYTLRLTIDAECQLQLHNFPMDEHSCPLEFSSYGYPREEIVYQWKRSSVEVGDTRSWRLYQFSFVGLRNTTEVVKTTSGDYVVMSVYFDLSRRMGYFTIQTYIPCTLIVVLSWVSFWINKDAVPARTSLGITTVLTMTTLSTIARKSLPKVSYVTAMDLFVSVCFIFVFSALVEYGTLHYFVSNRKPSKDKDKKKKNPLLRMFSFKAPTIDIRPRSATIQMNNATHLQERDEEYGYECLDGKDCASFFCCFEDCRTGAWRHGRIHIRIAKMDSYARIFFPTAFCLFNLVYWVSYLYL
T1 sequence (P34903 1-492): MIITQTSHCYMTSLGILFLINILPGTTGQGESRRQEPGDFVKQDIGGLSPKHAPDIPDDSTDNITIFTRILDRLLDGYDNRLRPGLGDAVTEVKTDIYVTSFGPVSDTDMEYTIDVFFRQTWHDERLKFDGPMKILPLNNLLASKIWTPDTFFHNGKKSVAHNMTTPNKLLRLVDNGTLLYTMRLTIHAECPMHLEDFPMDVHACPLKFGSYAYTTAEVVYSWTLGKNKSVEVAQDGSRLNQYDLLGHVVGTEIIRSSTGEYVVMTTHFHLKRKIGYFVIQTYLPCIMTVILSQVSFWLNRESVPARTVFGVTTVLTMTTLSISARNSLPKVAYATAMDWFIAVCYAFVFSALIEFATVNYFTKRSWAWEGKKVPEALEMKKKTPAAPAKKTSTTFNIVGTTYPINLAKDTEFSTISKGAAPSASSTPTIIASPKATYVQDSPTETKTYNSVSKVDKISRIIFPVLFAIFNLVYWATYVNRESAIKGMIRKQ
Description: Radioligand competition binding, α3β3γ2 BzR/GABA(A) isoform. Set-up: species or system human and rat. As for the experimental part:
as §1
In brief, for membrane preparations, the cells were scraped on to the ice and diluted into 5 mL of phosphate buffered saline (pH=7.40) and cells pelleted by centrifugation for 5 min. at 4° C. The pellet was resuspended in 1 mL of 50 mM Tris-acetate buffer (pH 7.4) and centrifuged at 18,000 g for 20 min. […] Each pellet were diluted to 6 mL and then 100 μL of membranes were incubated with approximately 1 nM final concentration of [^3H]Ro 15-1788 in a total volume of 250 μL together with serial dilutions of test compound for 90 min. on ice. The membranes were harvested in polyethyleneimine-pretreated Whatman GF/C filters and after drying and addition of scintillation cocktail, counted in a scintillation counter. The cpm retained on the filters was plotted against log concentration (M) and fitted to one site competition equation to obtain the Ki using Graphpad Prizm (V4.0) using the Cheng-Prusoff approximation.

For data set [3], the system named is αxβ3γ2 (α = 1-6) BzR/GABA(A) subtypes. The data set is described as follows: Binding across the BzR/GABA(A) subtypes (subtype selectivity in words). Set-up: species or system human and rat. As for the experimental part:
The binding affinity of XLi093 (8) in vitro was determined on α1-6β3γ2 LTK cells and is illustrated in the Scheme as shown in FIG. 2
as §1
In brief, for membrane preparations, the cells were scraped on to the ice and diluted into 5 mL of phosphate buffered saline (pH=7.40) and cells pelleted by centrifugation for 5 min. at 4° C. The pellet was resuspended in 1 mL of 50 mM Tris-acetate buffer (pH 7.4) and centrifuged at 18,000 g for 20 min. […] The membranes were harvested in polyethyleneimine-pretreated Whatman GF/C filters and after drying and addition of scintillation cocktail, counted in a scintillation counter. […]

Another data set relates to C57B1/6 mice. Description: Spontaneous locomotive activity. In kind it is in vivo. As to conditions: 30 mg/kg. An excerpt:
Further, animal data for FIGS. 22-26 were obtained using experimental methodologies described in a previously published reference, Influence of benzodiazepine binding site ligands on fear-conditioned contextual memory European journal of Pharmacology, Volume 426, Issues 1-2, 24 Aug. 2001, Pages 45-54, Timothy M. DeLorey, Richard C. Lin, Brian McBrady, Xiaohui He, James M. Cook, Jelveh Lameh and Gilda H. Loew, which is incorporated by reference as if fully set forth here in its entirety. Selected sections of the reference are provided below:
Male C57B1/6 mice were obtained from Charles Rivers Laboratories (Holister, Calif.) at 6 weeks of age. […] All animal protocols used in this study conform to the guidelines determined by the National Institute of Health (USA) Office for Protection from Research Risks and are approved by the Animal Care and Use Committee of the Palo Alto Veterans Administration Medical Center, Palo, Alto, Calif. […]
Mice were allowed to acclimate to the test room for 30 min prior to drug injection. […] Spontaneous locomotor activity was measured via seven sets of photoelectric sensors evenly spaced along the length of the monitoring chamber, 4 cm above the floor of the chamber (San Diego Instruments, San Diego, Calif.). Total activity was recorded in arbitrary units reflective of the number of times a mouse interrupts the photoelectric sensors during a 10-min monitoring session. […]

Setting [4] is: read-out: Ki α3, Table I, means of two determinations.
Setting [5] is: read-out: α3, untitled table of lead compounds, unit inferred.

Read-outs that look alike come from different tables or passages of the source. Some results are limits rather than exact numbers.

In the case of `CCOC(=O)c1ncn2c1CN=C(c1ccccc1)c1cc(-c3ccccc3)ccc1-2` [DM-I-81, Ethyl 8-phenyl-6-phenyl-4H-benzo[f]imidazo[1,5-a][1,4]diazepine-3-carboxylate], the Ki in data set [1] (Table I, means of two determinations, read-out: Ki α4) was over 2 µM; in data set [1] (untitled table of lead compounds, unit inferred, read-out: α4) it was over 2 µM; in data set [2] (setting [4]), over 2 µM; in data set [2] (setting [5]), over 2 µM. The “affinity at other BzR/GABA(A) subtypes than α5 (in words)” value in data set [3] was “binds only to α5β3γ2 subtypes”.
With `COCc1ncn2c1CN(C)C(=O)c1cc(Cl)ccc1-2` [PWZ-029, methyl(8-chloro-5,6-dihydro-5-methyl-6-oxo-4H-imidazo[1,5-α][1,4]benzodiazepin-3-yl)methyl ether], the Ki in data set [2] (setting [4]) and in data set [2] (setting [5]) was over 0.3 µM throughout.
Regarding `CCc1ccc2c(c1)C(=O)N(C)Cc1c(C(=O)OCCCOC(=O)c3ncn4c3CN(C)C(=O)c3cc(CC)ccc3-4)ncn1-2` [XLi356, 1,3-Bis(8-ethyl-5,6-dihydro-5-methyl-6-oxo-4H-imidazo[1,5a][1,4]benzodiazepine-3-carboxy)propyl diester], the “locomotion (in words)” value in the data set with C57B1/6 mice is reported as “reduced”.
